Several values for one entry are separate records, joined by “and”; a condition that tells them apart may be missing. Equal values may be shown once. Read-outs that look alike come from different tables or passages of the source.
Assays:
MRP = target: T1, MRP (Homo sapiens, UniProt P33527); test: Reversal of MRP-mediated MDR: enhancement of vincristine cytotoxicity toward MCF-7/VP cells; type: cell-based; conditions: % survival with compound alone / with compound + 1 nM vincristine; for MRP1 antagonism score: >1.0 = chemosensitization
T1 construct: MCF-7/VP cells, a cell line that expresses MRP; endogenous in cells; host or cells: MCF-7/VP cells
T1 sequence (P33527 whole entry): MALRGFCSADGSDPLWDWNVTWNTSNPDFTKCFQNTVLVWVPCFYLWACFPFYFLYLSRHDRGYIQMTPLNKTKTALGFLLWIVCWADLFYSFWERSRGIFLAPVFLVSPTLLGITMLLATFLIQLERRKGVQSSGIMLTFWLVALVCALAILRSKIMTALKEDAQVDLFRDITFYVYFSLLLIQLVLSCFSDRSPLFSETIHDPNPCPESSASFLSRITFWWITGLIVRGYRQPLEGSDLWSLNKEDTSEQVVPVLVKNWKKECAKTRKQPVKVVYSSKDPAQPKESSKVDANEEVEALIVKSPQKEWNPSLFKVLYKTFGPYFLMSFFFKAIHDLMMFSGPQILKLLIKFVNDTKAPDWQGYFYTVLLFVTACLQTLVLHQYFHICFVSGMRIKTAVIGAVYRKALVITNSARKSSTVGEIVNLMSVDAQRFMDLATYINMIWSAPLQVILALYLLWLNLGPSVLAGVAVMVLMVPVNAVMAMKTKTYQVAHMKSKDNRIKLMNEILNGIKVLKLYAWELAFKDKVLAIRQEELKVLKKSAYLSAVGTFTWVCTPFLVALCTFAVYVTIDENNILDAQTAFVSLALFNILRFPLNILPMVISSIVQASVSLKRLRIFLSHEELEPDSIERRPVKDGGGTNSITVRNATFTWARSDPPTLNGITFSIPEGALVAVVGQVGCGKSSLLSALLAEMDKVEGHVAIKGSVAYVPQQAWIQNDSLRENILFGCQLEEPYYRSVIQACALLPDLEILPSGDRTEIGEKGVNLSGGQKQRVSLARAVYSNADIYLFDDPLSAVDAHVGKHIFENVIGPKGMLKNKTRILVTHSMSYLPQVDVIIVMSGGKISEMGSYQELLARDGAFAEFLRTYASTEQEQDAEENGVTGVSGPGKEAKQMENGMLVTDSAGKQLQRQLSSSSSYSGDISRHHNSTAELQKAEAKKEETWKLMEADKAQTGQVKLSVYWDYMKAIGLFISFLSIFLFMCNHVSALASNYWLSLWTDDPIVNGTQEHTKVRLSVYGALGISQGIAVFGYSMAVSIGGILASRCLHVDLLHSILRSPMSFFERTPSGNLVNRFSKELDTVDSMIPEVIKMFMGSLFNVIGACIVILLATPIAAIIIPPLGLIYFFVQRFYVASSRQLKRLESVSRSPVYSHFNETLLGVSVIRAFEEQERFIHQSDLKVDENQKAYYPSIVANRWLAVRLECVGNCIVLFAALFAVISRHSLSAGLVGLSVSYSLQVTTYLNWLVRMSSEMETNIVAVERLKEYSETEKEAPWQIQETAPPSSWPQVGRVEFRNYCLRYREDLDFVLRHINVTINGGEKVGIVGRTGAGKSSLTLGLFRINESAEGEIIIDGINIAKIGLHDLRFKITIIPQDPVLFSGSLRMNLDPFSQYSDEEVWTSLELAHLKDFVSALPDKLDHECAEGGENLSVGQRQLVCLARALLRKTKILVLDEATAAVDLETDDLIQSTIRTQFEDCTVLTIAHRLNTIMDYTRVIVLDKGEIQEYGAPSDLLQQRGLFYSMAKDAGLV
Protocol: Reversal of MRP-mediated MDR was examined by plating MCF-7/VP cells as described above and exposing the cells to varying concentrations of phenoxymethylquinoxalinone compounds in the absence or presence of 1 nM vincristine for 48 hours. Cell survival was assayed as described above. The percentage of cells that died following treatment was calculated as described above. Inhibition of MRP was manifested as the ability of the compound to enhance the cytotoxicity of vincristine toward MCF-7/VP cells.
Chemosensitization is indicated by a score greater than 1.0.
Chemosensitization is indicated by a score greater than 1.0. […]

P-gp = P-gp (Homo sapiens, UniProt P08183); conditions: for Pgp Antagonism / P-gp antagonism score: % survival with compound alone / with compound + 50 nM vinblastine; for P-gp antagonism score: >1.0 = chemosensitization; for p-GP/MRP1: ratio of P-gp and MRP1 antagonism scores
Chain of P-gp (P08183 whole entry): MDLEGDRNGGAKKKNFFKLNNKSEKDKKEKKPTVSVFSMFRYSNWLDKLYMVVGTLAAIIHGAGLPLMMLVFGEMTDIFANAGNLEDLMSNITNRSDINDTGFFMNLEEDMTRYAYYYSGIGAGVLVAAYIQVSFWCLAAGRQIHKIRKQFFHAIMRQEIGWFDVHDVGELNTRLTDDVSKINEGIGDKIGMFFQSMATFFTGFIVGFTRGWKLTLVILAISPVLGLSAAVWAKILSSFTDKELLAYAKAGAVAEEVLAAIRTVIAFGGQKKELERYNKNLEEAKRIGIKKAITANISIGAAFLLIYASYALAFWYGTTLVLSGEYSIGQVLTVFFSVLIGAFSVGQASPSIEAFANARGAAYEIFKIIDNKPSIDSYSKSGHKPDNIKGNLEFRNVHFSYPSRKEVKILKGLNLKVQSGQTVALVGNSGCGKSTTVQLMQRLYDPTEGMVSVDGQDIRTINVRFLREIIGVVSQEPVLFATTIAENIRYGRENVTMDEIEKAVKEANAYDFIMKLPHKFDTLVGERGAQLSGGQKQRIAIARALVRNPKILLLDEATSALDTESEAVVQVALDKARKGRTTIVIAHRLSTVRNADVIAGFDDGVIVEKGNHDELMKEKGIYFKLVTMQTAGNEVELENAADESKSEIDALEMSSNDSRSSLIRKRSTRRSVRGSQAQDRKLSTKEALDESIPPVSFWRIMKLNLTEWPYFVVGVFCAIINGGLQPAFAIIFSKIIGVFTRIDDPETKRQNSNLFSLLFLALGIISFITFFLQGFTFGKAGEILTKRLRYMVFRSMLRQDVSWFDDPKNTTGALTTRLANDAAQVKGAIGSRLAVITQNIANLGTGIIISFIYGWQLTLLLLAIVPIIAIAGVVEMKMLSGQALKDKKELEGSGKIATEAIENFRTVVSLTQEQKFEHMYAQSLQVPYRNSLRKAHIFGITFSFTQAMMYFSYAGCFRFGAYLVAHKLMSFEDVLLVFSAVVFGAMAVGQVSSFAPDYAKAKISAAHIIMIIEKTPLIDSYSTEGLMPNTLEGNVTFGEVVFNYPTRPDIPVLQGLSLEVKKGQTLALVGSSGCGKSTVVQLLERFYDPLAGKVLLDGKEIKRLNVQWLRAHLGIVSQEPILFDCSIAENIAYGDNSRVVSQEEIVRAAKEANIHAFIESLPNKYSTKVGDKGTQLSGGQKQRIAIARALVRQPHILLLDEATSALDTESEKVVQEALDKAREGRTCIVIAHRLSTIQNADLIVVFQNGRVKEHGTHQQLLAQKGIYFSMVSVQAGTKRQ
Protocol: The percentage of cells that died following treatment was calculated as a percent decrease in sulforhodamine B binding as compared with control cultures. […] Inhibition of P-gp was manifested as the ability of the compound to enhance the cytotoxicity of vinblastine toward NCI/ADR cells. To assess the toxicity of the compounds toward drug-sensitive cells, the effects of the compounds on the growth of drug-sensitive MCF-7 cells were determined using the same methods.
The P-gp antagonism score was calculated by dividing the percent survival of NCI/ADR cells treated with the compound alone by the percent survival of NCI/ADR cells treated with the compound in the presence of 50 nM vinblastine. Chemosensitization is indicated by a score of more than 1.0.
The P-gp antagonism score was calculated by dividing the percent survival of NCI/ADR cells treated with […] by the percent survival of NCI/ADR cells treated with the compound in the presence of 50 nM vinblastine.

MCF-7 cells = test: Cytotoxicity toward drug-sensitive MCF-7 cells (sulforhodamine B binding assay); type: cell-based, human; conditions: for Toxicity: percent of MCF-7 cells killed by 10 μ/ml of the compound
[1] = MCF-7 cells, 48 hours, concentration required to kill 50% of the cells, * = maximum dose tested (low solubility)
[2] = concentration of compound at the maximum antagonism
[3] = MCF-7 cells, concentration required to kill 50% of the cells

| SMILES | MRP Antagonism (MRP) | Pgp Antagonism (P-gp; NCI/ADR cells) | Toxicity (MCF-7 cells) | MRP1 antagonism score (MRP) | also measured |
| --- | --- | --- | --- | --- | --- |
| CN1CCc2c1nc1ccccc1c2NC(=O)CN1CCCCC1 [Compound 42] | 1.2 | 4.1 | 51% | – | – |
| CC(C)(C)NCC(=O)Nc1c2c(nc3ccccc13)N(Cc1ccccc1)CC2 [Compound 60] | – | – | 29% | – | – |
| Cn1c(=O)c(COc2ccc(C#N)cc2)nc2ccccc21 [Compound 3, 3-(4-Cyano-phenoxymethyl)-1-methyl-1H-quinoxalin-2-one] | – | – | – | 0.8 | IC50 (MCF-7 cells; Homo sapiens, MCF7, 48 h): > 43 µM |
| Cn1c(=O)c(COc2ccc(-c3ccccc3)cc2)nc2ccccc21 [Compound 17] | – | – | – | 0.7 | IC50 (MCF-7 cells; [1]): 30 µM |
| CC(C)(C)c1cc(CCC(=O)Nc2c3c(nc4ccccc24)N(Cc2ccccc2)CC3)cc(C(C)(C)C)c1O [Compound 64] | 1.15 | 13.2 | 50% | – | – |
| Cn1c(=O)c(COc2ccccc2Cc2ccccc2)nc2ccccc21 [Compound 15] | – | – | – | 1.1 | P-gp antagonism score (P-gp; NCI/ADR cells): 1.0; p-GP/MRP1 (P-gp): 0.9; IC50 (MCF-7 cells; [1]): 8.1 µM |
| CCOC(=O)c1ccc(OCc2nc3ccccc3n(C)c2=O)cc1 [Compound 13, 4-(4-Methyl-3-oxo-3,4-dihydro-quinoxalin-2-ylmethoxy)-benzoyl ethyl ester] | – | – | – | 0.9 | P-gp antagonism score (P-gp; NCI/ADR cells): 3.8; p-GP/MRP1 (P-gp): 4.2; IC50 (MCF-7 cells; [1]): > 74 µM |
| CCN(CC)CC(=O)Nc1c2c(nc3ccccc13)N(C)CC2 [Compound 41] | 1.2 | 6.0 | 30% | – | – |
| CN1CCc2c1nc1ccccc1c2NC(=O)CNC(C)(C)C [Compound 40] | 1.2 | 3.2 | 28% | – | – |
| CN1CCc2c1nc1ccccc1c2NC(=O)CCc1cc(C(C)(C)C)c(O)c(C(C)(C)C)c1 [Compound 46] | 1.0 | 1.0 | 99% | – | – |
| COc1ccc(OCc2nc3ccccc3n(C)c2=O)cc1OC [Compound 22] | – | – | – | 0.9 | IC50 (MCF-7 cells; [1]): 28 µM |
| Fc1cccc(CNc2c3c(nc4ccccc24)N(Cc2ccccc2)CC3)c1 [Compound 4003] | – | – | – | – | Maximum Antagonism (conc. μg/ml) (P-gp; [2]): 25 µg/mL; Toxicity IC50 (MCF-7 cells; [3]): >25 µg/mL |
| Nc1c2c(nc3ccccc13)N(Cc1ccccc1)CC2 [Compound 4001] | – | – | – | – | Antagonism at IC20 or less, P-gp (P-gp): 1.0; Maximum Antagonism (P-gp): 4.0 (3.1); Maximum Antagonism (conc. μg/ml) (P-gp): 4.0 (3.1) μg/ml; Toxicity IC50 (MCF-7 cells; [3]): 1.7 µg/mL |
| CC(C)NCC(=O)Nc1c2c(nc3ccccc13)N(Cc1ccccc1)CC2 [Compound 59] | 0.99 | 13.0 | 45% | – | – |
| COc1cc(CNc2c3c(nc4ccccc24)N(Cc2ccccc2)CC3)cc(OC)c1 [Compound 4005] | – | – | – | – | Maximum Antagonism (conc. μg/ml) (P-gp; [2]): 25 µg/mL; Toxicity IC50 (MCF-7 cells; [3]): 20 µg/mL |
| CN1CCc2c1nc1ccccc1c2NC(=O)C12CC3CC(CC(C3)C1)C2 [Compound 45] | 0.9 | 4.7 | 29% | – | – |
| O=C(Nc1c2c(nc3ccccc13)N(Cc1cccc(Cl)c1)CC2)C12CC3CC(CC(C3)C1)C2 [Compound 52] | 1.2 | 1.2 | 33% | – | – |
| CCC(=O)Nc1c2c(nc3ccccc13)N(C)CC2 [Compound 37] | 1.0 | 1.6 | – | – | – |
| CCN(CC)CC(=O)Nc1c2c(nc3ccccc13)N(Cc1ccccc1)CC2 [Compound 61] | 0.98 | 14.8 | 14% | – | – |
| Cn1c(=O)c(COc2ccc(C(=O)c3ccccc3)cc2)nc2ccccc21 [Compound 8, 3-(4-Benzoyl-phenoxymethyl)-1-methyl-1H-quinoxalin-2-one] | – | – | – | 0.9 | IC50 (MCF-7 cells; Homo sapiens, MCF7, 48 h): > 67 µM |
| Cn1c(=O)c(COc2ccccc2)nc2ccccc21 [Compound 1, 1-Methyl-3-phenoxymethyl-1H-quinoxalin-2-one] | – | – | – | 1.0 | IC50 (MCF-7 cells; Homo sapiens, MCF7, 48 h): > 94 µM |
| Cn1c(=O)c(COc2c(F)c(F)c(F)c(F)c2F)nc2ccccc21 [Compound 4] | – | – | – | 0.8 | P-gp antagonism score (P-gp; NCI/ADR cells): 2.1; p-GP/MRP1 (P-gp): 2.6; IC50 (MCF-7 cells; [1]): > 70 µM |
| CN1CCc2c1nc1ccccc1c2N=C(c1ccccc1)N1CCCCC1 [Compound 47] | 1.0 | 2.4 | 58% | – | – |

| SMILES | MRP Antagonism (MRP) | Pgp Antagonism (P-gp; NCI/ADR cells) | Toxicity (MCF-7 cells) | MRP1 antagonism score (MRP) | also measured |
| --- | --- | --- | --- | --- | --- |
| Nc1c2c(nc3ccccc13)N(Cc1ccccc1)CC2 [Compound 53] | 1.0 | 3.1 | 47% | – | – |
| CCCCN(CCCC)CC(=O)Nc1c2c(nc3ccccc13)N(C)CC2 [Compound 43] | 1.3 | 4.2 | 50% | – | – |
| COc1cc(OC)cc(OCc2nc3ccccc3n(C)c2=O)c1 [Compound 21] | – | – | – | 0.9 | IC50 (MCF-7 cells; [1]): 25 µM |
| Cn1c(=O)c(COc2cccc(Nc3ccccc3)c2)nc2ccccc21 [Compound 14] | – | – | – | 0.9 | P-gp antagonism score (P-gp; NCI/ADR cells): 1.3; p-GP/MRP1 (P-gp): 1.5; IC50 (MCF-7 cells; [1]): 25 µM |
| Cn1c(=O)c(COc2cccnc2)nc2ccccc21 [Compound 16] | – | – | – | 1.1 | P-gp antagonism score (P-gp; NCI/ADR cells): 1.0; p-GP/MRP1 (P-gp): 0.9; IC50 (MCF-7 cells; [1]): > 56 µM |
| CN1CCc2c1nc1ccccc1c2NC(=O)CNCCc1ccc(O)cc1 [Compound 44] | 1.4 | 1.7 | 21% | – | – |
| Cn1c(=O)c(COc2ccc(F)cc2)nc2ccccc21 [Compound 2] | – | – | – | 0.8 | IC50 (MCF-7 cells; [1]): 26 µM |
| CN(C)c1cccc(OCc2nc3ccccc3n(C)c2=O)c1 [Compound 12] | – | – | – | 0.9 | P-gp antagonism score (P-gp; NCI/ADR cells): 1.1; p-GP/MRP1 (P-gp): 1.1; IC50 (MCF-7 cells; [1]): 57 µM |
| Nc1c2c(nc3ccccc13)N(c1ccccc1)CC2 [Compound 51] | 1.1 | 2.7 | 52% | – | – |
| CC(C)NCC(=O)Nc1c2c(nc3ccccc13)N(C)CC2 [Compound 39] | 1.4 | 1.8 | 39% | – | – |
| O=C(Nc1c2c(nc3ccccc13)N(Cc1ccccc1)CC2)c1ccc(F)c(C(F)(F)F)c1 [Compound 4010] | – | – | – | – | Maximum Antagonism (conc. μg/ml) (P-gp; [2]): 3.1 µg/mL; Toxicity IC50 (MCF-7 cells; [3]): 9 µg/mL |
| CN1CCc2c1nc1ccccc1c2NC(=O)Cc1ccccc1 [Compound 38] | 1.0 | – | – | – | – |
| O=C(CN1CCCCC1)Nc1c2c(nc3ccccc13)N(Cc1ccccc1)CC2 [Compound 62] | 1.1 and 1.09 | 17.8 | 0% | – | – |
| Nc1c2c(nc3ccccc13)N(C1CCCCC1)CC2 [Compound 49] | 0.6 | 0.8 | 97% | – | – |
| CN1CCc2c1nc1cc(Br)ccc1c2N [Compound 36] | 1.6 | 1.3 | 99% and 94% | – | – |
| O=C(CN1CCCCC1)Nc1c2c(nc3ccccc13)N(Cc1ccccc1)CC2 [Compound 4007] | – | – | – | – | potency of P-gp antagonism compared with verapamil (P-gp; FIG. 7, NCI/ADR cells, 50 nM vinblastine): somewhat more potent than verapamil; Maximum Antagonism (conc. μg/ml) (P-gp; [2]): 3.1 µg/mL; Toxicity IC50 (MCF-7 cells; [3]): 6 µg/mL |
| COc1cc(OCc2nc3ccccc3n(C)c2=O)cc(OC)c1OC [Compound 23] | – | – | – | 0.9 | P-gp antagonism score (P-gp; NCI/ADR cells): 1.2; p-GP/MRP1 (P-gp): 1.3; IC50 (MCF-7 cells; [1]): 21 µM |
| O=C(Nc1c2c(nc3ccccc13)N(Cc1ccccc1)CC2)c1c(F)cccc1C(F)(F)F [Compound 4009] | – | – | – | – | Maximum Antagonism (conc. μg/ml) (P-gp; [2]): 3.1 µg/mL; Toxicity IC50 (MCF-7 cells; [3]): 6 µg/mL |
| CN1CCN(CC(=O)Nc2c3c(nc4ccccc24)N(Cc2ccccc2)CC3)CC1 [Compound 63] | 1.07 | 7.5 | 21% | – | – |
| Cc1cc(OCc2nc3ccccc3n(C)c2=O)ccc1[N+](=O)[O-] [Compound 9] | – | – | – | 1.1 | P-gp antagonism score (P-gp; NCI/ADR cells): 1.6; p-GP/MRP1 (P-gp): 1.4; IC50 (MCF-7 cells; [1]): > 77 µM |
| Cn1c(=O)c(COc2ccccc2C(=O)Nc2ccccc2)nc2ccccc21 [Compound 11, 2-(4-Methyl-3-oxo-3,4-dihydroquinoxalin-2-yl-methoxy)-N-phenylbenzamide] | – | – | – | 1.0 | IC50 (MCF-7 cells; Homo sapiens, MCF7, 48 h): > 32 µM |
| COC(=O)c1ccc(OCc2nc3ccccc3n(C)c2=O)c(OC)c1 [Compound 10, 3-Methoxy-4-(4-methyl-3-oxo-3,4-dihydroquinoxalin-2-yl-methoxy)-benzoyl methyl ester] | – | – | – | 1.1 | P-gp antagonism score (P-gp; NCI/ADR cells): 5.6; p-GP/MRP1 (P-gp): 5.2; IC50 (MCF-7 cells; [1]): 71 µM |
